Measured values as given in US12077503B2, “Substituted cyclic amides and their use as herbicides” (FMC CORPORATION, priority 2015, dated 2024).

Assays:
Type in all cases: in vivo
Kochia (Kochia scoparia) [1] = assay: Test A preemergence; conditions: Preemergence; for Plant response rating, Kochia: 125 g ai/ha, visual injury after approximately 10 d, 0 to 100 scale where 0 is no effect and 100 is complete control; for Kochia plant response rating (0 to 100 scale, 0 is no effect, 100 is complete control): 500 g ai/ha, visual injury approx. 10 d
Description: (§1) Seeds of plant species selected from barnyardgrass (Echinochloa crus-galli), Kochia (Kochia scoparia), ragweed (common ragweed, Ambrosia elatior), ryegrass, Italian (Italian ryegrass, Lolium multiflorum), crabgrass, large (Digitaria sanguinalis), giant foxtail (Setaria faberii), green foxtail (Setaria viridis), morningglory (Ipomoea spp.), pigweed (Amaranthus retroflexus), velvetleaf (Abutilon theophrasti), wheat (Triticum aestivum), and corn (Zea mays) were planted into a blend of loam soil and sand and treated preemergence with a directed soil spray using test chemicals formulated in anon-phytotoxic solvent mixture which included a surfactant.
(§2) At the same time, plants selected from these crop and weed species and also blackgrass (Alopecurus myosuroides), and Galium (catchweed bedstraw, Galium aparine) were planted in pots containing the same blend of loam soil and sand and treated with postemergence applications of test chemicals formulated in the same manner. Plants ranged in height from 2 to 10 cm and were in the one- to two-leaf stage for the postemergence treatment. Treated plants and untreated controls were maintained in a greenhouse for approximately 10 d, after which time all treated plants were compared to untreated controls and visually evaluated for injury. Plant response ratings, summarized in Table A, are based on a 0 to 100 scale where 0 is no effect and 100 is complete control. A dash (-) response means no test result.

[2] = test system: barnyardgrass (Echinochloa crus-galli); assay: Test A preemergence; conditions: Preemergence; for Plant response rating, Barnyardgrass: 125 g ai/ha, visual injury after approximately 10 d, 0 to 100 scale where 0 is no effect and 100 is complete control; for Barnyardgrass plant response rating (0 to 100 scale, 0 is no effect, 100 is complete control): 500 g ai/ha, visual injury approx. 10 d
Description: as §1, §2

[3] = test system: giant foxtail (Setaria faberii); assay: Test A preemergence; conditions: Preemergence; for Plant response rating, Foxtail, Giant: 125 g ai/ha, visual injury after approximately 10 d, 0 to 100 scale where 0 is no effect and 100 is complete control; for Foxtail, Giant plant response rating (0 to 100 scale, 0 is no effect, 100 is complete control): 500 g ai/ha, visual injury approx. 10 d
Description: as §1, §2

[4] = test system: pigweed (Amaranthus retroflexus); assay: Test A preemergence; conditions: Preemergence; for Plant response rating, Pigweed: 125 g ai/ha, visual injury after approximately 10 d, 0 to 100 scale where 0 is no effect and 100 is complete control; for Pigweed plant response rating (0 to 100 scale, 0 is no effect, 100 is complete control): 500 g ai/ha, visual injury approx. 10 d
Description: as §1, §2

[5] = test system: ragweed (common ragweed, Ambrosia elatior); assay: Test A preemergence; conditions: Preemergence; for Plant response rating, Ragweed: 125 g ai/ha, visual injury after approximately 10 d, 0 to 100 scale where 0 is no effect and 100 is complete control; for Ragweed plant response rating (0 to 100 scale, 0 is no effect, 100 is complete control): 500 g ai/ha, visual injury approx. 10 d
Description: as §1, §2

[6] = test system: ryegrass, Italian (Italian ryegrass, Lolium multiflorum); assay: Test A preemergence; conditions: Preemergence; for Plant response rating, Ryegrass, Italian: 125 g ai/ha, visual injury after approximately 10 d, 0 to 100 scale where 0 is no effect and 100 is complete control; for Ryegrass, Italian plant response rating (0 to 100 scale, 0 is no effect, 100 is complete control): 500 g ai/ha, visual injury approx. 10 d
Description: as §1, §2

[7] = test system: Galium (catchweed bedstraw, Galium aparine); assay: Test A postemergence
Description: as §1, §2

Kochia (Kochia scoparia) [8] = assay: Test A postemergence
Description: as §1, §2

[9] = test system: barnyardgrass (Echinochloa crus-galli); assay: Test A postemergence
Description: as §1, §2

[10] = test system: blackgrass (Alopecurus myosuroides); assay: Test A postemergence
Description: as §1, §2

corn (Zea mays) = assay: Test A postemergence
Description: as §1, §2

[11] = test system: giant foxtail (Setaria faberii); assay: Test A postemergence
Description: as §1, §2

[12] = test system: pigweed (Amaranthus retroflexus); assay: Test A postemergence
Description: as §1, §2

[13] = test system: ragweed (common ragweed, Ambrosia elatior); assay: Test A postemergence
Description: as §1, §2

[14] = test system: ryegrass, Italian (Italian ryegrass, Lolium multiflorum); assay: Test A postemergence
Description: as §1, §2

[15] = test system: wheat (Triticum aestivum); assay: Test A postemergence
Description: as §1, §2

[16] = 125 g ai/ha, postemergence, visual rating after approx. 10 d, 0 to 100 scale (0 no effect, 100 complete control)
[17] = Postemergence, 500 g ai/ha, 0 to 100 scale where 0 is no effect and 100 is complete control

Row | SMILES | Plant response rating, Kochia (Kochia (Kochia scoparia) [1]) | Kochia plant response rating (0 to 100 scale, 0 is no effect, 100 is complete control) (Kochia (Kochia scoparia) [1]) | Plant response rating, Barnyardgrass [2] | Barnyardgrass plant response rating (0 to 100 scale, 0 is no effect, 100 is complete control) [2] | Plant response rating, Foxtail, Giant [3] | Foxtail, Giant plant response rating (0 to 100 scale, 0 is no effect, 100 is complete control) [3] | Plant response rating, Pigweed [4] | Pigweed plant response rating (0 to 100 scale, 0 is no effect, 100 is complete control) [4] | Plant response rating, Ragweed [5] | Ragweed plant response rating (0 to 100 scale, 0 is no effect, 100 is complete control) [5] | Plant response rating, Ryegrass, Italian [6] | Ryegrass, Italian plant response rating (0 to 100 scale, 0 is no effect, 100 is complete control) [6] | Plant response rating, Galium [7, 16] | Plant response rating, Galium [7, 17] | Plant response rating, Kochia (Kochia (Kochia scoparia) [8]; [16]) | Plant response rating, Kochia (Kochia (Kochia scoparia) [8]; [17]) | Plant response rating, Barnyardgrass [9, 16] | Plant response rating, Barnyardgrass [9, 17] | Plant response rating, Blackgrass [10, 16] | Plant response rating, Blackgrass [10, 17] | other results
1 | O=C1NCC(c2cccc(C(F)(F)F)c2)C1C(=O)Nc1ccccc1O (stereo not shown) [Compound 557] | 0 | 0 | 0 | 0 | 0 | 0 | 0 | 0 | 0 | 0 | 0 | 0 | 0 | 0 | 0 | 0 | 0 | 0 | 0 | 0 | Plant response rating, Corn (corn (Zea mays); [16]): 0; Plant response rating, Corn (corn (Zea mays); [17]): 0; Plant response rating, Foxtail, Giant [11, 16]: 0; Plant response rating, Foxtail, Giant [11, 17]: 0; Plant response rating, Pigweed [12, 16]: 0; Plant response rating, Pigweed [12, 17]: 0; Plant response rating, Ragweed [13, 16]: 0; Plant response rating, Ragweed [13, 17]: 0; Plant response rating, Ryegrass, Italian [14, 16]: 0; Plant response rating, Ryegrass, Italian [14, 17]: 0; Plant response rating, Wheat [15, 16]: 0; Plant response rating, Wheat [15, 17]: 0
2 | CN1CC(c2ccc(Br)cc2)C(C(=O)Nc2ccccc2S(C)(=O)=O)C1=O (stereo not shown) [Compound 565] | 70 | 90 | 80 | 90 | 90 | 90 | 70 | 80 | 50 | 50 | 0 | 40 | 60 | 60 | 20 | 60 | 80 | 90 | 40 | 60 | Plant response rating, Corn (corn (Zea mays); [16]): 0; Plant response rating, Corn (corn (Zea mays); [17]): 20; Plant response rating, Foxtail, Giant [11, 16]: 80; Plant response rating, Foxtail, Giant [11, 17]: 90; Plant response rating, Pigweed [12, 16]: 20; Plant response rating, Pigweed [12, 17]: 60; Plant response rating, Ragweed [13, 16]: 0; Plant response rating, Ragweed [13, 17]: 50; Plant response rating, Ryegrass, Italian [14, 16]: 20; Plant response rating, Ryegrass, Italian [14, 17]: 30; Plant response rating, Wheat [15, 16]: 0; Plant response rating, Wheat [15, 17]: 40
3 | CCc1cccc(C2CN(C)C(=O)C2C(=O)Nc2ccccc2F)c1 (stereo not shown) [Compound 567] | 60 | 80 | 100 | 100 | 100 | 100 | 20 | 40 | 50 | 60 | 60 | 80 | 40 | 50 | 20 | 50 | 90 | 100 | 60 | 80 | Plant response rating, Corn (corn (Zea mays); [16]): 70; Plant response rating, Corn (corn (Zea mays); [17]): 90; Plant response rating, Foxtail, Giant [11, 16]: 90; Plant response rating, Foxtail, Giant [11, 17]: 90; Plant response rating, Pigweed [12, 16]: 20; Plant response rating, Pigweed [12, 17]: 20; Plant response rating, Ragweed [13, 16]: 0; Plant response rating, Ragweed [13, 17]: 0; Plant response rating, Ryegrass, Italian [14, 16]: 70; Plant response rating, Ryegrass, Italian [14, 17]: 70; Plant response rating, Wheat [15, 16]: 30; Plant response rating, Wheat [15, 17]: 60
4 | Cc1c(F)cccc1NC(=O)C1C(=O)N(C)CC1c1cccc(C(F)(F)F)c1 (stereo not shown) [Compound 573] | 70 | 80 | 90 | 100 | 90 | 100 | 40 | 80 | 0 | 50 | 80 | 90 | 60 | 70 | 50 | 60 | 90 | 100 | 70 | 70 | Plant response rating, Corn (corn (Zea mays); [16]): 80; Plant response rating, Corn (corn (Zea mays); [17]): 90; Plant response rating, Foxtail, Giant [11, 16]: 90; Plant response rating, Foxtail, Giant [11, 17]: 90; Plant response rating, Pigweed [12, 16]: 30; Plant response rating, Pigweed [12, 17]: 40; Plant response rating, Ragweed [13, 16]: 20; Plant response rating, Ragweed [13, 17]: 60; Plant response rating, Ryegrass, Italian [14, 16]: 70; Plant response rating, Ryegrass, Italian [14, 17]: 90; Plant response rating, Wheat [15, 16]: 70; Plant response rating, Wheat [15, 17]: 70
5 | CN1CC(c2cccc(C(F)(F)F)c2)C(C(=O)Nc2cccc(Cl)c2F)C1=O (stereo not shown) [Compound 574] | 40 | 70 | 90 | 90 | 90 | 90 | 20 | 50 | 0 | 0 | 40 | 80 | 40 | 50 | 30 | 60 | 90 | 90 | 60 | 70 | Plant response rating, Corn (corn (Zea mays); [16]): 60; Plant response rating, Corn (corn (Zea mays); [17]): 80; Plant response rating, Foxtail, Giant [11, 16]: 80; Plant response rating, Foxtail, Giant [11, 17]: 80; Plant response rating, Pigweed [12, 16]: 20; Plant response rating, Pigweed [12, 17]: 40; Plant response rating, Ragweed [13, 16]: 0; Plant response rating, Ragweed [13, 17]: 0; Plant response rating, Ryegrass, Italian [14, 16]: 50; Plant response rating, Ryegrass, Italian [14, 17]: 70; Plant response rating, Wheat [15, 16]: 40; Plant response rating, Wheat [15, 17]: 70
